# Values of other authors, collected in patent publication US20250170284A1, “Hydroxamic Acid Macrocyclic Agents With Pendant Chelating Moieties And Complexes Thereof” (LUMIPHORE, INC., priority 2022, published 2025).
# Details: complex formation of the ligand with thorium(IV)
substance,measurement,value
diethylenetriamine pentaacetic acid [DTPA],Log K1,30.34
